The values below come from patent US4764508A, “Complexes of flavanolignans with phospholipids, preparation thereof and associated pharmaceutical compositions” (Inverni Della Beffa S.p.A., priority 1985, dated 1988).

The test system of data set [1] is liver poisoning with carbon tetrachloride. In words: Anti-hepatotoxic activity of silybin and of 1:1 silybin-phosphatidylcholine complex in the rat, after poisoning with carbon tetrachloride. The class given is in vivo. The following applies: oral; for reduction in GOT and GPT (in words): carbon tetrachloride, equimolecular doses; for GOT: poisoned controls 339.40 ± 59.07; for GOT, % change (in brackets) / GPT, % change (in brackets): versus poisoned controls.

The conditions of data set [2]: in vivo, po.
The nature of data set [3]: Pharmacokinetic comparison between equimolar doses of silybin and of 1:1 silybin:phosphatidylcholine complex in man, oral administration. Conditions: 0.00 = below sensitivity of the method (35 ng/ml).
Data set [4] can be described thus: Pharmacokinetic comparison between equimolar doses of silybin and of 1:1 silybin-phosphatidylcholine complex in the rat, after oral administration.
For data set [5] the following is noted: conclusion from literature reports; cited from earlier work.
A short description of data set [6]: Solubility in chloroform, ethyl ether or benzene.
[7] abbreviates: silybin 25 mg/kg, complex 65.8 mg/kg (equivalent to 25 mg silybin), poisoned controls 145.40 ± 31.43.
The mark [8] stands for this setting: silybin 25 mg/kg, complex 65.8 mg/kg (equivalent to 25 mg silybin).
Where [9] appears, read: silybin 25 mg/kg, complex 65.8 mg/kg.
The mark [10] stands for this setting: silybin 250 mg/kg (P < .05), complex 658 mg/kg (equivalent to 250 mg silybin; P < .01).
The mark [11] stands for this setting: silybin 250 mg/kg, complex 658 mg/kg (equivalent to 250 mg silybin), poisoned controls 145.40 ± 31.43, °° P < .01.
Where [12] appears, read: silybin 250 mg/kg, complex 658 mg/kg.

Turning to “1:1 Silybin/soy phosphatidylcholine complex [1:1 silybin-phosphatidylcholine complex]”, the “reduction in GOT and GPT (in words)” value in data set [1] is “significant reduction”. Moreover, the GPT in data set [1] (setting [7]) is recorded as 65.90 U/L; in data set [1] (setting [11]), 46.90 U/L. Moreover, the GOT in data set [1] (setting [8]) was determined as 181.80 U/L; in data set [1] (setting [10]), 148.10 U/L. Besides, the entries for the “GOT, % change (in brackets)” value in data set [1] (setting [9]) and in data set [1] (setting [12]) were -46.4% and -56.4%, respectively. For the same molecule, the “GPT, % change (in brackets)” value in data set [1] (setting [9]) was -54.7%; in data set [1] (setting [12]) it was -67.8%. Besides, the “absorption in the rat (in words)” value in data set [2] is reported as “markedly in favour of the complexed form”.

Consider `COc1cc(C2Oc3cc([C@H]4Oc5cc(O)cc(O)c5C(=O)[C@@H]4O)ccc3OC2CO)ccc1O` (stereo partly drawn) [Silybin, silybin], for which, in data set [3] (complex 700, silybin 270, 0.25 h), the “concentration at sampling time 0.25 h” value was found to be 0.00 ng/mL. Besides, the “concentration at sampling time 0.50 h” value in data set [3] (complex 700, silybin 270, 0.50 h) was found to be 0.00 ng/mL. The “concentration at sampling time 1.00 h” value in data set [3] (complex 700, silybin 270, 1.00 h) is 0.00 ng/mL. Also, in data set [3] (complex 700, silybin 270, 2.00 h), the “concentration at sampling time 2.00 h” value turned out to be 0.00 ng/mL. In addition, the “concentration at sampling time 3.00 h” value in data set [3] (complex 700, silybin 270, 3.00 h) was found to be 0.00 ng/mL. For the same molecule, the “concentration at sampling time 4.00 h” value in data set [3] (complex 700, silybin 270, 4.00 h) came to 0.00 ng/mL. Besides, the “concentration at sampling time 6.00 h” value in data set [3] (complex 700, silybin 270, 6.00 h) was 0.00 ng/mL. Moreover, the “concentration at sampling time 8.00 h” value in data set [3] (complex 700, silybin 270, 8.00 h) turned out to be 0.00 ng/mL. For the same molecule, in data set [1], the “reduction in GOT and GPT (in words)” value was “only a slight reduction”. In addition, in data set [1] (setting [7]), the GPT is recorded as 94.30 U/L. Besides, the GOT in data set [1] (setting [8]) was determined as 252.60 U/L. In addition, in data set [1] (setting [9]), the “GOT, % change (in brackets)” value is given as -25.6% and the “GPT, % change (in brackets)” value is given as -35.2%. In addition, the GOT in data set [1] (setting [10]) was 200.00 U/L. In addition, the GPT in data set [1] (setting [11]) was 94.90 U/L. In data set [1] (setting [12]), the “GOT, % change (in brackets)” value is on record as -41.1% and the “GPT, % change (in brackets)” value is reported as -34.8%. In data set [4] (in vivo, po, 200 mg/kg), this molecule displayed a concentration at 0.25 h of 70 ng/mL, a concentration at 0.5 h of 60 ng/mL, a concentration at 1 h of 110 ng/mL and a concentration at 2 h of 50 ng/mL. Also, the concentration at 3 h in data set [4] (in vivo, po, 200 mg/kg) stood at 50 ng/mL. Besides, the “concentration at sampling time 4.00 h” value in data set [4] (oral, complex 520 mg/kg (equivalent to 200 mg/kg silybin), silybin 200 mg/kg, 4.00 h, 0.00 = nondeterminable, below limit of 0.05 mcg/ml) came out at 0 ng/mL. In data set [4] (oral, complex 520 mg/kg (equivalent to 200 mg/kg silybin), silybin 200 mg/kg, 6.00 h, 0.00 = nondeterminable, below limit of 0.05 mcg/ml), the “concentration at sampling time 6.00 h” value stood at 0 ng/mL. In addition, the “oral bioavailability (in words)” value in data set [5] was “does not have really high or adequate bioavailability”. In addition, the “solubility in chloroform, ethyl ether or benzene” value in data set [6] is “insoluble”.
